In patent US20160355530A1, “HEPATITIS C INHIBITORS AND USES THEREOF” (AbbVie Inc., priority 2010, published 2016):
pEC50, pIC50: −log10 of the molar value. Where two headings read alike, the source gives them in different places.

Tests used:
[1] = biological target: T1, HCV NS5B polymerase 1a-H77 (Hepatitis C virus genotype 1a, UniProt P27958); assay: biochemical; design: species or system HCV genotype 1a; conditions: enzyme, strain 1a H77; read-out: HCV Polymerase Strain 1a H77 IC50
T1 construct: six-histidine tag; made in house; host or cells: E. coli
T1 sequence (P27958 2421-2990): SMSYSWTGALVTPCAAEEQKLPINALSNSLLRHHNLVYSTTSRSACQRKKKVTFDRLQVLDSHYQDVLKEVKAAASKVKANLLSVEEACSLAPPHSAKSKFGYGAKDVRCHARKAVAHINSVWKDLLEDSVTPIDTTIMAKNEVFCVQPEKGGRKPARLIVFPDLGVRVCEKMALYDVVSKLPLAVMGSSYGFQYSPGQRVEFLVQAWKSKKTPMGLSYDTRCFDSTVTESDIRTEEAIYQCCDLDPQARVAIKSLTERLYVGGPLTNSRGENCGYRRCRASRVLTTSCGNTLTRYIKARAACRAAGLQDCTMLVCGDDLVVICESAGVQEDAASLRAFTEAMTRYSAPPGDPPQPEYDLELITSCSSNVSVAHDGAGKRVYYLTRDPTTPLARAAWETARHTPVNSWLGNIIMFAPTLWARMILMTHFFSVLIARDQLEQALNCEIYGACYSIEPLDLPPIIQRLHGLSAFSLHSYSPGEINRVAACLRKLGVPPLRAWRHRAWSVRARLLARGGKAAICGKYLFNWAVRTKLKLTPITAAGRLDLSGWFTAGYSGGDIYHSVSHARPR
How it was run: (§1)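 Recombinant NS5B (residues 1–570, His-tagged, E. coli-expressed) copied 5 nM of a 2.1 kb HCV 1b negative-strand 3′-end RNA template with 20 μM CTP, 20 μM ATP and 0.284 μM [3H]UTP for 3 h at 30 °C. Spermine-precipitated RNA was filter-captured and counted, and IC50 was fitted by nonlinear regression.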

[2] = biological target: T2, HCV NS5B polymerase 1a-H77-C316Y (Hepatitis C virus genotype 1a, UniProt P27958, C2736Y); assay: biochemical; design: species or system HCV genotype 1a
T2 construct: six-histidine tag; made in house; host or cells: E. coli
T2 sequence (P27958 2421-2990 C2736Y): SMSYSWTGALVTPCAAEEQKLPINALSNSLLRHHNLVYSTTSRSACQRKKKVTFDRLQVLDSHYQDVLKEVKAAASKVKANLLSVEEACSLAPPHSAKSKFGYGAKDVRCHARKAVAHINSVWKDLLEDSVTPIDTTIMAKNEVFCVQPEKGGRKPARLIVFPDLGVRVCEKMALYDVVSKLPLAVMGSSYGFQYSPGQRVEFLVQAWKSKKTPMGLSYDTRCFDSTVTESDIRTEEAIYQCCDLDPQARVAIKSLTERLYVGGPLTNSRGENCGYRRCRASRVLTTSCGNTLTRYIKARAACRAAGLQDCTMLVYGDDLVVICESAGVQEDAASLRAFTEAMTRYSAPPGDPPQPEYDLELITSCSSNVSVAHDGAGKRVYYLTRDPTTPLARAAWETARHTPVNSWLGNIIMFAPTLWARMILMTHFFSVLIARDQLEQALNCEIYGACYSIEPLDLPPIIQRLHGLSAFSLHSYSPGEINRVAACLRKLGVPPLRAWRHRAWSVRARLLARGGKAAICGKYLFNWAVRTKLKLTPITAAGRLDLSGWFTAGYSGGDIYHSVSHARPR
How it was run: as §1

[3] = system: HCV NS5B polymerase 1a-H77-C316Y; assay: biochemical; design: species or system HCV genotype 1a; conditions: ratio of enzyme IC50s, 1a H77-C316Y / 1a H77
How it was run: as §1

[4] = biological target: T3, HCV NS5B polymerase 1b BK strain (Hepatitis C virus genotype 1b, UniProt P26663); assay: HCV NS5B polymerase enzymatic inhibition assay, strain 1b BK; assay type: biochemical; conditions: enzyme, strain 1b BK; read-out: HCV Polymerase Strain 1b BK IC50
T3 construct: six-histidine tag; made in house; host or cells: E. coli
T3 sequence (P26663 2420-2989): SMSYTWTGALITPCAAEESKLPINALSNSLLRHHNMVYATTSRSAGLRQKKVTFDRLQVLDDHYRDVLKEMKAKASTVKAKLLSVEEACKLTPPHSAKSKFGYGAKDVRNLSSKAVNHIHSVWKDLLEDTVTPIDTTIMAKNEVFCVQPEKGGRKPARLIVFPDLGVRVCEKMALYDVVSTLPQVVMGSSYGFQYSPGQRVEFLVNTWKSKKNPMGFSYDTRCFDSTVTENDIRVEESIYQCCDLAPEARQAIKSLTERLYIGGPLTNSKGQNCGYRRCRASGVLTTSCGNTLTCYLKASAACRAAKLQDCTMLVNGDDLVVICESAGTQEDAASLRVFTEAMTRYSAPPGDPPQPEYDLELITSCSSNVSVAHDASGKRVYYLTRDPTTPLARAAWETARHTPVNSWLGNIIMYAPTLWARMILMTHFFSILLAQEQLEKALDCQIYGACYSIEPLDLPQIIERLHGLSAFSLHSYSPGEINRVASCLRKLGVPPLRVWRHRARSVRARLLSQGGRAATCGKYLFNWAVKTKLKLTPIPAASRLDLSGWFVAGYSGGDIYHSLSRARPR
How it was run: as §1

[5] = system: HCV 1a-H77 subgenomic replicon; assay: microbe, parasite or virus in culture; assay type: cell-based, HCV genotype 1a; conditions: Hepatitis C virus, stable replicon
[6] = system: HCV 1b-BB7 subgenomic replicon; assay: microbe, parasite or virus in culture; assay type: cell-based, HCV genotype 1b; conditions: Hepatitis C virus, stable replicon
[7] = system: chimeric replicon with 2a-J6CF-derived NS5B; assay: microbe, parasite or virus in culture; assay type: cell-based, HCV genotype 2a; conditions: Hepatitis C virus, read-out: 2a chimera 5% FBS EC50
[8] = system: chimeric replicon with genotype 2b NS5B; assay: microbe, parasite or virus in culture; assay type: cell-based, HCV genotype 2b; conditions: Hepatitis C virus, read-out: 2b chimera 5% FBS EC50
[9] = system: chimeric replicon with genotype 3a NS5B; assay: microbe, parasite or virus in culture; assay type: cell-based, HCV genotype 3a; conditions: Hepatitis C virus, read-out: 3a chimera 5% FBS EC50
[10] = system: chimeric replicon with genotype 4a NS5B; assay: microbe, parasite or virus in culture; assay type: cell-based, HCV genotype 4a; conditions: Hepatitis C virus, read-out: 4a chimera 5% FBS EC50
[11] = system: HCV 1a-H77 transient subgenomic replicon in Huh-7 derived cell line; assay: microbe, parasite or virus in culture; assay type: cell-based, HCV genotype 1a; conditions: Hepatitis C virus, Huh-7; transient replicon, 5% FBS; read-out: Transient Replicon 1a H77 5% FBS EC50
How it was run: (§2)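 Subgenomic replicon RNA (no Neo gene) electroporated into Huh-7-derived cells, plated at 5×10^3 cells/well; a 4 h plate gauged transfection efficiency. Cells exposed to 3-fold compound dilutions (0.5% DMSO) for 4 days at 37° C, then lysed for luciferase readout; EC50 calculated.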

[12] = system: HCV 1a-H77-C316Y transient subgenomic replicon in Huh-7 derived cell line; assay: microbe, parasite or virus in culture; assay type: cell-based, HCV genotype 1a; conditions: for pEC50: Hepatitis C virus, Huh-7, read-out: Transient Replicon 1a H77-C316Y 5% FBS EC50; for Transient Replicon Fold Resistance C316Y/1a: ratio of transient replicon EC50s, C316Y / 1a H77
How it was run: as §2

[13] = 5% FBS, absence of human plasma, read-out: Stable Replicon 1a H77 5% FBS EC50
[14] = strain 1a H77, 5% FBS + 40% human plasma, read-out: 1a H77 5% FBS + 40% Human Plasma EC50
[15] = strain 1a H77, 5% FBS, no human plasma, read-out: 1a H77 5% FBS EC50
[16] = strain 1a H77, 5% FBS, read-out: 1a H77 5% FBS EC50
[17] = strain 1b BB7, 5% FBS + 40% human plasma, read-out: 1b BB7 5% FBS + 40% Human Plasma EC50
[18] = strain 1b BB7, 5% FBS, no human plasma, read-out: 1b BB7 5% FBS EC50
[19] = strain 1b BB7, 5% FBS, read-out: 1b BB7 5% FBS EC50

| SMILES | pIC50 [1] | pIC50 [2] | C316Y/1a Fold Resistance [3] [fold] | pIC50 [4] | pEC50 [5, 13] | pEC50 [5, 14] | pEC50 [5, 15] | pEC50 [5, 16] | pEC50 [6, 17] | pEC50 [6, 18] | pEC50 [6, 19] | pEC50 [7] | pEC50 [8] | pEC50 [9] | pEC50 [10] | pEC50 [11] | pEC50 [12] | Transient Replicon Fold Resistance C316Y/1a [12] [fold] |
| --- | --- | --- | --- | --- | --- | --- | --- | --- | --- | --- | --- | --- | --- | --- | --- | --- | --- | --- |
| CS(=O)(=O)N(CCC1CCS(=O)(=O)C1)c1cc2oc(-c3ccc(F)cc3)c(C3=NOCN3)c2cc1C1CC1 (stereo not drawn) [Example 149, N-[5-cyclopropyl-3-(4,5-dihydro-1,2,4-oxadiazol-3-yl)-2-(4-fluorophenyl)-1-benzofuran-6-yl]-N-[2-(1,1-dioxidotetrahydrothiophen-3-yl)ethyl]methanesulfonamide] | 8.46 | 7.39 | 12 | 8.05 | 8.06 | 5.99 | 8.06 | 8.06 | 6.19 | 8.40 | 8.40 | 7.27 | 7.47 | 8.15 | 7.68 | 8.14 | 6.91 | 17 |
| CC(C)CCN(c1cc2oc(-c3ccc(F)cc3)c(C3=NOCN3)c2cc1C1CC1)S(C)(=O)=O [Example 156, N-[5-cyclopropyl-3-(4,5-dihydro-1,2,4-oxadiazol-3-yl)-2-(4-fluorophenyl)-1-benzofuran-6-yl]-N-(3-methylbutyl)methanesulfonamide] | 8.20 | 7.47 | 5 | 7.57 | 7.38 | 5.64 | 7.38 | 7.38 | 5.53 | 7.15 | 7.15 | 6.14 | 6.05 | 7.19 | 6.21 | 7.54 | 6.43 | 13 |
| CS(=O)(=O)N(CCCC(=O)O)c1cc2oc(-c3ccc(F)cc3)c(C3=NOCN3)c2cc1C1CC1 [Example 157, 4-{[5-cyclopropyl-3-(4,5-dihydro-1,2,4-oxadiazol-3-yl)-2-(4-fluorophenyl)-1-benzofuran-6-yl](methylsulfonyl)amino}butanoic acid] | 8.30 | 7.27 | 11 | 7.80 | 6.96 | 5.55 | 6.96 | 6.96 | 5.61 | 7.03 | 7.03 | 6.00 | 6.00 | 6.97 | < 6.00 | 6.95 | 5.16 | 62 |
| Cc1cnc(-c2c(-c3ccc(F)cc3)oc3cc(N(CCC(C)C)S(C)(=O)=O)c(C4CC4)cc23)[nH]1 [Example 172, N-[5-cyclopropyl-2-(4-fluorophenyl)-3-(5-methyl-1H-imidazol-2-yl)-1-benzofuran-6-yl]-N-(3-methylbutyl)methanesulfonamide] | 7.88 | 7.06 | 7 | 6.75 | 7.17 | 5.91 | 7.17 | 7.17 | 5.95 | 6.95 | 6.95 | 6.00 | 6.00 | 6.63 | < 6.00 | 7.39 | 6.99 | 3 |
| CS(=O)(=O)Nc1cc2oc(-c3ccc(F)cc3)c(C3=NOCN3)c2cc1C1CC1 [Example 173, N-[5-cyclopropyl-3-(4,5-dihydro-1,2,4-oxadiazol-3-yl)-2-(4-fluorophenyl)-1-benzofuran-6-yl]methanesulfonamide] | 8.15 | 5.85 | 198 | 7.07 | 6.09 | 5.01 | 6.09 | 6.09 | 5.30 | 6.52 | 6.52 | 6.00 | 6.00 | 6.84 | < 6.00 | 6.00 | 5.00 | 10 |
| Cc1c[nH]c(-c2c(-c3ccc(F)cc3)oc3cc(N(CCCCO)S(C)(=O)=O)c(C4CC4)cc23)n1 [Example 187, N-[5-cyclopropyl-2-(4-fluorophenyl)-3-(4-methyl-1H-imidazol-2-yl)-1-benzofuran-6-yl]-N-(4-hydroxybutyl)methanesulfonamide] | 7.59 | 6.80 | 6 | 6.77 | 7.38 | 6.39 | 7.38 | 7.38 | 6.61 | 7.20 | 7.20 | 6.15 | 6.00 | 7.04 | < 6.00 | 7.54 | 6.89 | 4 |
| Cc1c[nH]c(-c2c(-c3ccc(F)cc3)oc3cc(N(CCO)S(C)(=O)=O)c(C4CC4)cc23)n1 [Example 189, N-[5-cyclopropyl-2-(4-fluorophenyl)-3-(4-methyl-1H-imidazol-2-yl)-1-benzofuran-6-yl]-N-(2-hydroxyethyl)methanesulfonamide] | 7.59 | 6.34 | 18 | 6.33 | 6.79 | 6.11 | 6.79 | 6.79 | 6.35 | 6.94 | 6.94 | 5.98 | 5.73 | 6.64 | 5.53 | 6.86 | 6.49 | 2 |
